What was measured:
[1] = system: Sorbitol accumulation in sciatic nerve; assay: Inhibition of sorbitol accumulation in the sciatic nerve of streptozotocin-diabetic rats; assay type: in vivo, Sprague-Dawley rats; settings: 25 mg/kg orally, twice a day for two days; relative to the control
Method: (§1) Sprague-Dawley rats (male, 5-7 week old, five rats/group) were fasted for 18 hours. The rats were made diabetic by an intravenous injection of 70 mg/kg of streptozotocin (Produced by Cal Biochem) at the site of the tail under ether anesthesia. After the administration of streptozotocin, these rats were administered orally with 25 mg/kg of the test compounds (5% suspension of gum-arabica) for two days twice a day (at 9.00 a.m. and at 4.00 p.m.). During this period, these rats were allowed free access to CE-2 feedstuff (Produced by Clea Japan) and water while determining blood-sugar level of each animal. On the morning of the third day, these rats were decapitated and bled, then the lens and sciatic nerve were quickly excised. The respective contents of sorbitol in the lens and sciatic nerve were determined by the enzymatic assay method described by R. S. Clements et al., in Science, 166, p. 1007 (1969) applied to the extracts of these organs obtained by the method described by M. J. Peterson et al., in Metabolism, 28, 456 (1979).
(§2) The results are shown in the Table below as % inhibition relative to the control. Incidentally, no significant difference in blood-sugar level was observed between the group of test animals to which the test compounds were administered and the control group of the test animals to which no test compounds were administered.

[2] = molecular target: T1, partially purified aldose reductase preparation from human placenta (Homo sapiens, UniProt P15121); assay: Aldose reductase inhibitory action; assay type: biochemical; settings: 10^-6 M; human placenta enzyme
T1 construct: partially purified aldose reductase preparation from human placenta; from tissue; host or cells: human placenta
Method: Aldose reductase inhibitory action was assayed in accordance with the method disclosed by S. Haymen et al. in Journal of Biological Chemistry, Vol. 240, p. 877 (1965) and that disclosed by Jin H. Kinoshita et al. in Metabolism, Vol. 28, Nr. 4, Suppl. 1, 462 (1979). The enzyme used in the assay was a partially purified aldose reductase preparation from human placenta. The results for the respective compounds were expressed as % inhibition at the concentration of 10^-6 mole and are shown in Table 1.

[3] = system: Sorbitol accumulation in lens; assay: Inhibition of sorbitol accumulation in the lens of streptozotocin-diabetic rats; assay type: in vivo, Sprague-Dawley rats; settings: 25 mg/kg orally, twice a day for two days; relative to the control
Method: as §1, §2

mice = assay: Oral acute toxicity in mice; assay type: in vivo

SMILES	Inhibition of Sorbitol Accumulation (%), Sciatic Nerve [1] [%]	inhibition at 1 µM [2] [%]	Inhibition of Sorbitol Accumulation (%), Lens [3] [%]	oral LD50 (mice)
O=C1NC(=O)C(c2ccc3c(c2)CCCCC3)S1 (centres unmarked) [Example 1, 5-(6,7,8,9-tetrahydro-5H-benzocycloheptadien-2-yl)thiazolidine-2,4-dione]	83	34	65	
O=C1NC(=O)C(c2ccc3c(c2)CCCC3)S1 (centres unmarked) [Example 2, 5-(5,6,7,8-tetrahydro-2-naphthyl)thiazolidine-2,4-dione]	79	36	73	no less than 100 mg
O=C1NC(=O)C(c2ccc3c(c2)CCC3)S1 (centres unmarked) [Example 4, 5-(5-indanyl)thiazolidine-2,4-dione]	66	30	62	
Cc1ccc(C2SC(=O)NC2=O)cc1C (centres unmarked) [reference compound]	5		18	
COc1ccc(C2SC(=O)NC2=O)cc1OC (centres unmarked) [reference compound]	-2		62	

From patent US4486594A, “Thiazolidine derivatives and production thereof” (Takeda Chemical Industries, Ltd., priority 1982, dated 1984)
